{"source": "paper PMC5593639", "about": "“NSC30049 inhibits Chk1 pathway in 5-FU-resistant CRC bulk and stem cell populations” (Oncotarget, 2017)", "key": {"HCT-116 cells": {"tested_on": "HCT-116 cells", "assay": "Cell survival (MTT assay), HCT-116", "format": "cell-based, human", "settings": "for IC50: Homo sapiens, HCT-116, 48 h; for cytotoxic effect: 48 h", "experimental": "(§1) The survival of cells was determined by MTT (3-(4,5-Dimethylthiazol-2yl-)-2,5-diphenyl tetrazolium bromide) assay (ATCC, Manassas, VA, USA). In principle, the viable cell number is directly proportional to the purple formazan color of the reduced MTT dye, which can be quantitatively measured by spectrophotometry. Briefly, 1,500 cells were plated in quadruplets in 96-well flat-bottom tissue culture plates. After treatment with compounds for certain periods as described in respective figure legends, 10 μl of MTT reagent was added to each well and incubated at 37°C for 4 h to allow the formation of purple color crystals of formazan. In total, 100 μl of detergent solution was added to each well, and the reaction mixture was incubated in dark for 2–4 h at room temperature. The developed color density was then measured spectrophotometrically at 570 nm using the POLARstar Omega micro-plate reader (BMG Labtech, Inc., Cary, NC, USA)."}, "[1]": {"tested_on": "HCoEpiC normal colonic epithelial cell line", "assay": "Cell survival (MTT assay), HCoEpiC", "format": "cell-based", "settings": "Homo sapiens, drug alone, 48 h", "experimental": "as §1"}, "LoVo cells": {"tested_on": "LoVo cells", "assay": "Cell survival (MTT assay), LoVo", "format": "cell-based", "settings": "Homo sapiens, drug alone, 48 h", "experimental": "as §1"}, "SW480 cells": {"tested_on": "SW480 cells", "assay": "Cell survival (MTT assay), SW480", "format": "cell-based", "settings": "Homo sapiens, drug alone, 48 h", "experimental": "as §1"}, "LS174T cells": {"tested_on": "LS174T cells", "assay": "Cell survival (MTT assay), LS174T", "format": "cell-based", "settings": "Homo sapiens, drug alone, 48 h", "experimental": "as §1"}, "RKO cells": {"tested_on": "RKO cells", "assay": "Cell survival (MTT assay), RKO", "format": "cell-based", "settings": "Homo sapiens, drug alone, 48 h", "experimental": "as §1"}, "CA2 CRC stem cell line": {"tested_on": "CA2 CRC stem cell line", "assay": "Spheroid (sphere) formation assay", "format": "cell-based", "settings": "Homo sapiens; drug alone, seventh day", "experimental": "Live CA2 cells (100) were seeded in 384-well ultra-low attachment plates. Next, day cells were treated with different concentrations of NSC49L and 5-FU either alone or in combination. Cells were incubated for 7 days and the number of spheroids were counted in control and treated groups under an Olympus inverted microscope with a 10× magnification."}, "[2]": {"tested_on": "ALDH1, KLF4, Nanog, Oct4, Sox2, c-Myc mRNA in CA2 cells", "assay": "Stem cell marker and self-renewal gene mRNA levels by qRT-PCR", "format": "cell-based, human", "settings": "drug alone, 72 h, normalized with GAPDH", "experimental": "Total RNA was isolated from control and treated cells with RNAzol reagent (Invitogen, Carlsbad, CA, USA). The expression of mRNA levels of stemness genes was determined by qRT-PCR using Bio-Rad CFX96 Real Time System C1000 Thermal Cycler. The primers used for amplification of mRNA levels of genes were from Celprogen, Inc., as shown here with their Gene Bank accession and catalog numbers: ALDHA1 (NM_000689, Cat. No. CepALDHA1-02), Klf4 (NM_004235, Cat No. CepKlf4-02), Nanog (NM_024865, Cat. No. CepNanog-02), Oct4 (NM_002701, Cat No. CepOct4-02), Sox2 (NM_003106, Cat. No. CepSox2-02), c-Myc (NM_002467, Cat. No. Cepc-Myc-02) and GAPDH (NM_002046, Cat. No. Cep-GAPDH-02)."}, "[3]": {"tested_on": "Chk1 phosphorylation in HCT-116 cells", "assay": "Western blot of total and phosphorylated Chk1, HCT-116", "format": "cell-based, human", "settings": "5-FU alone, 24 h", "experimental": "(§2) The levels of various proteins were determined by Western blot analysis with our previously described procedure. The antibodies for phospho-Chk1(Ser317), phospho-Chk1(Ser317), phospho-Chk1(Ser319), phospho-Chk1(Ser345), Chk1, and GAPDH were purchased from Cell Signaling Technology (Danvers, MA, USA)."}, "[4]": {"tested_on": "human-derived CRC stem cell tumors", "assay": "Patient-derived tumor xenograft (PDTX) of CRC stem cell tumors", "format": "in vivo, female SCID mice", "settings": "20 mg/kg body weight 5-FU every day, 30 days", "experimental": "With the pharmacokinetics analysis and MTD data in hand, we determined the efficacy of NSC49L and 5-FU alone and in combination for the growth of human-derived CRC stem cell tumors in vivo. CRC stem cells were isolated and characterized from the freshly resected human CRC tumor. One thousands of these CRC stem cells were injected subcutaneously into the right flank of the four 5-week old female SCID mice. After 20 days the first generation tumors (F0) of approximately 2,000 mm^3 in size were harvested. They were divided into four equal pieces and implanted under the skin of the female SCID mice for the growth of second generation tumors (F1) for testing the drug efficacy studies. We divided the F1 tumor bearing mice into four groups and treated them every day subcutaneously with drugs as follows: i) PBS control, (ii) 50 mg/kg body weight NSC49L, (iii) 20 mg/kg body weight 5-FU, and iv) 50 and 20 mg/kg body weight NSC49L and 5-FU, respectively, for 30 days. The treatment with drugs began after 10 days of tumor growth. The body weight and tumor volumes were recorded twice a weak. The experiment was terminated on the 32nd day."}, "[5]": {"set-up": "method as in PMID 20482808", "settings": "cited from earlier work"}, "HT29 cells": {"tested_on": "HT29 cells", "assay": "Cell cycle profile by FACS", "format": "cell-based, human", "settings": "2 mM HU 24 h", "experimental": "For determining the cell cycle profile, cells were plated in 60 mm tissue culture dishes and grown until 60% confluence. […] After treatment, cells were harvested at different time intervals, washed with ice-cold PBS and processed for FACS analysis as described previously. The ranges for G0/G1, S, and G2/M phase arrested and sub-G1 apoptotic cells were established on the basis of the corresponding DNA content of the histograms. At minimum, 10,000 cells were counted from each sample."}, "[6]": {"tested_on": "Chk1 phosphorylation in HT29 cells", "assay": "Western blot of total and phosphorylated Chk1, HT29", "format": "cell-based, human", "settings": "2 mM HU 24 h", "experimental": "as §2"}, "HCT116(p53−/−) cells": {"tested_on": "HCT116(p53−/−) cells", "assay": "MTT assay, IC50 of HU, HCT116(p53−/−)", "format": "cell-based, human", "settings": "72 h, compared with HCT116(p53+/+) cells", "experimental": "as §1"}, "Solubility in water": {"assay": "Solubility in water", "format": "physicochemical"}, "[7]": {"tested_on": "human immunodeficiency virus (HIV) strain 1(RF)", "set-up": "method as in http://dtp.cancer.gov/dtpstandard/AIDSData/index.jsp", "settings": "ref http://dtp.cancer.gov/dtpstandard/AIDSData/index.jsp; cited from earlier work"}}, "data": [{"smiles": "O=c1[nH]cc(F)c(=O)[nH]1", "note": "[5-FU, 5-fluorouracil]", "values": [{"measurement": "IC50", "setting": "HCT-116 cells; drug alone, MTT, Table 1, four estimations", "result": "11.5 ± 1.5", "unit": "µM"}, {"measurement": "IC50", "setting": "[1]", "result": "513 ± 22", "unit": "µM"}, {"measurement": "IC50", "setting": "LoVo cells", "result": "22 ± 0.9", "unit": "µM"}, {"measurement": "IC50", "setting": "SW480 cells", "result": "113 ± 6", "unit": "µM"}, {"measurement": "IC50", "setting": "LS174T cells", "result": "51 ± 3.8", "unit": "µM"}, {"measurement": "IC50", "setting": "RKO cells", "result": "68 ± 10.4", "unit": "µM"}, {"measurement": "IC50", "setting": "CA2 CRC stem cell line", "result": 7.5, "unit": "µM"}, {"measurement": "mRNA levels of ALDH1, KLF4, Nanog, Oct4, Sox2 and c-Myc", "setting": "[2]", "result": "decreased"}, {"measurement": "Chk1 phosphorylation (S317, S345, S296)", "setting": "[3]", "result": "increased phosphorylation at all three Chk1 sites"}, {"measurement": "Growth of CRC stem cell tumors", "setting": "[4]", "result": "initially appreciable; however after the 21st day of treatment growth of the tumors resumed"}, {"measurement": "AUC (bioavailability)", "setting": "[5]", "result": "59710 ± 10580", "unit": "ng·h/mL"}, {"measurement": "t1/2", "setting": "[5]", "result": "12.6 ± 3.6", "unit": "min"}]}, {"smiles": "NC(=O)NO", "note": "[HU, hydroxyurea, reference compound]", "values": [{"measurement": "Cell cycle distribution G2/M", "setting": "HT29 cells", "result": 19.4, "unit": "%"}, {"measurement": "Cell cycle distribution S (S-phase arrest)", "setting": "HT29 cells", "result": 27.7, "unit": "%"}, {"measurement": "Cell cycle distribution S (S-phase arrest)", "setting": "HT29 cells; HU withdrawn, 8 h drug-free medium", "result": 42.4, "unit": "%"}, {"measurement": "Phosphorylation of Chk1 at S317, S345 and S296", "setting": "[6]", "result": "increased"}, {"measurement": "IC50 of HU", "setting": "HCT116(p53−/−) cells", "result": "decreased"}]}, {"smiles": "C1N2CN3CN1CN(C2)C3", "note": "[HMTA, hexamethylenetetramine, reference compound]", "values": [{"measurement": "cytotoxic effect", "setting": "HCT-116 cells; MTT assay, Figure 1B", "result": "very little cytotoxic effect"}]}, {"smiles": "ClCC=CC[N+]12CN3CN(CN(C3)C1)C2", "note": "[NSC30049, 1-(4-Chloro-2-butenyl)-1λ∼5∼,3,5,7-tetraazatricyclo [3.3.1.1∼3,7∼] decane]", "values": [{"measurement": "Solubility in water", "setting": "Solubility in water", "result": "readily soluble in water"}, {"measurement": "Activity against HIV", "setting": "[7]", "result": "inactive"}]}, {"smiles": "CC[N+](CC)(CC)CC=CCCl.[Cl-]", "note": "[CBTA, (4-Chloro-but-2-enyl)triethylammonium chloride, reference compound]", "values": [{"measurement": "cytotoxic effect", "setting": "HCT-116 cells; MTT assay, Figure 1B", "result": "very little cytotoxic effect"}]}, {"smiles": "ClC/C=C\\C[N+]12CN3CN(CN(C3)C1)C2", "note": "[c-NSC30049]", "values": [{"measurement": "IC50", "setting": "HCT-116 cells; MTT assay, Figure 1B, three experiments", "result": 7.2, "unit": "µM"}]}]}
